Results published in paper PMC12605013, “SAG1.3-derived Frizzled-targeting small-molecule compounds” (The Journal of Biological Chemistry, 2025).

Assays:
[1] = target: T1, ΔCRD-Nluc-FZD6 (Homo sapiens, UniProt O60353); test: BRET-based BODIPY-cyclopamine competition binding at FZD6 lacking the CRD; settings: BODIPY-cyclopamine 200 nM; ΔFZD1-10 HEK293T cells; read-out: pIC50 (11) mean ± SEM, ΔCRD-Nluc-FZD6 (converted)
T1 construct: amplifying ΔCRD-FZD6 (starting from D156) using SNAP-FZD6 as a template; expressed in transfected cells; host or cells: ΔFZD1–10 HEK293T cells
T1 sequence (O60353 156-706): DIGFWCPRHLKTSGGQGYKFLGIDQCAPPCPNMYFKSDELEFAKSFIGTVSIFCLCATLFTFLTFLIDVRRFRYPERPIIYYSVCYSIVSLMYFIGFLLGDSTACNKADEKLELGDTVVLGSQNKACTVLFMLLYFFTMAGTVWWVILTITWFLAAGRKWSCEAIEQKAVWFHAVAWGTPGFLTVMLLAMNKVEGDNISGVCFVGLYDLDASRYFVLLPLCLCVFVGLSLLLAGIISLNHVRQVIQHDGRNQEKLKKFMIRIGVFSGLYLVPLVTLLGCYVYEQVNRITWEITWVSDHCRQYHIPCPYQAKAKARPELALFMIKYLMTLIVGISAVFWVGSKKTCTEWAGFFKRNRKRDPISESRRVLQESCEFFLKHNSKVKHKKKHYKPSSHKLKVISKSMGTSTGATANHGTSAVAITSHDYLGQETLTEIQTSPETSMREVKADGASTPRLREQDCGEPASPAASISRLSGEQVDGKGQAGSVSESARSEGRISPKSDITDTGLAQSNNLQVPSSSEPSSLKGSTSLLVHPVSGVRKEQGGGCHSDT
Method: (§1) After 24 h, cells were washed once with Hanks' balanced salt solution (HBSS), followed by the addition of 80 μl of HBSS. Next, 10 μl of the competitive ligand, that is, the tested SAG1.3 derivative (either in different concentrations for the concentration–response curves or at a final concentration of 10 μM for the first screens) and 10 μl of the fluorescent tracer BODIPY–cyclopamine (final concentration: 300 nM for the first screens, 200 nM for the concentration–response experiments) were added. All serial dilutions were prepared in HBSS. The cells were incubated for 90 min at 37 °C without additional CO2, after which 10 μl of luciferase substrate diluted in HBSS (furimazine; Promega, N1572, final dilution: 1:1000 for first screening) and coelenterazine h (Biosynth; final concentration: 5 μM for concentration–response experiments) were added to the cells. Following a 10 min incubation period in the dark, the measurement was started on a BMG Labtech ClarioStar or TECAN Spark multimode microplate reader, prewarmed to 37 °C. Nluc bioluminescence was detected between 460 and 490 nm (ClarioStar) or 460 and 500 nm (TECAN Spark). The emission of the fluorescent tracer was detected between 520 and 550 nm (ClarioStar) or between 520 and 560 nm (TECAN Spark). […]

[2] = test system: LGR5 gene expression in primary human hepatocyte (PHH) spheroids; test: WNT-3A-induced LGR5 gene expression in primary human hepatocyte spheroids; type: cell-based; settings: 10 μM compound, 48 h, coaddition with WNT-3A
Method: Cryopreserved adult PHHs were purchased from BioIVT and cultured as 3D spheroids as previously described ([35]). Briefly, PHHs were seeded in 96-well ultra-low attachment plates (Corning) at a density of 1500 cells/well in William’s E medium (Gibco) supplemented with insulin, transferrin, and selenium (Life Technologies), 100 nM dexamethasone (Sigma), and 10% fetal bovine serum (Cytiva). PHHs were treated from the start of the culture with vehicle control (dimethyl sulfoxide [DMSO]), recombinant WNT-3A, and 10 μM compound 11 for 48 h, as indicated. […]
RNA from 24 hepatocyte spheroids per condition was isolated using Qiazol lysis reagent (QIAGEN). For expression profiling of target genes by quantitative PCR, complementary DNA synthesis was carried out using SuperScript III reverse transcriptase (Invitrogen), and expression was evaluated using Taqman probes (Table S6) according to the supplier’s instructions in a 7500 Fast Real-Time PCR system (Applied Biosystems). Gene expression was quantified using the ΔΔCt method (normalized to the average of the vehicle control from all three experiments).
For the WNT target gene analysis in PHH-derived spheroids, ΔΔCt values were calculated by normalization to the averaged vehicle control from three independent experiments.

[3] = target: T2, firefly luciferase (Fluc) (Photinus pyralis, UniProt P08659); test: Fluc counter assay (CMV-driven recombinant Fluc in HEK293 cells); type: cell-based; settings: counter assay for readout interference
T2 construct: expressed in transfected cells; host or cells: HEK293 cells
Method: Figure S3. […] Experiments were performed in HEK293 cells.

[4] = target: T3, Nluc-FZD5 (Homo sapiens, UniProt Q13467); test: BRET-based BODIPY-cyclopamine competition binding at Nluc-FZD5; settings: BODIPY-cyclopamine 200 nM; ΔFZD1-10 HEK293T cells; read-out: pIC50 (11) mean ± SEM, Nluc-FZD5 (converted)
T3 construct: expressed in transfected cells; host or cells: ΔFZD1–10 HEK293T cells
Method: as §1

T2 sequence (P08659 whole entry): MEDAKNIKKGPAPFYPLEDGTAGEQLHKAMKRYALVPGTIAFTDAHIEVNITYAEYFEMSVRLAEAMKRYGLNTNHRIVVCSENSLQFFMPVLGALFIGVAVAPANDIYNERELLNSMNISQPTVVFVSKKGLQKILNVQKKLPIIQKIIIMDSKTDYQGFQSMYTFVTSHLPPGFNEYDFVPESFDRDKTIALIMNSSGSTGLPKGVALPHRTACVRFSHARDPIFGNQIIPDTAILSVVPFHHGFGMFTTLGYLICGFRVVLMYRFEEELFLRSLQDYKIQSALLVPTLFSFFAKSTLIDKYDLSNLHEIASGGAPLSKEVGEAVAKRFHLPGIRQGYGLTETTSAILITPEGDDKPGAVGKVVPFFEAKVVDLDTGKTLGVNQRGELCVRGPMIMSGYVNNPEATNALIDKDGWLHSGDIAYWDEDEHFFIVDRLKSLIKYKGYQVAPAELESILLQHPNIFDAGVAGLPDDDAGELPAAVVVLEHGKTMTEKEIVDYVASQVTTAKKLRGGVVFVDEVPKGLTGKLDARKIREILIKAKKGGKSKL
T3 sequence (Q13467 27-585): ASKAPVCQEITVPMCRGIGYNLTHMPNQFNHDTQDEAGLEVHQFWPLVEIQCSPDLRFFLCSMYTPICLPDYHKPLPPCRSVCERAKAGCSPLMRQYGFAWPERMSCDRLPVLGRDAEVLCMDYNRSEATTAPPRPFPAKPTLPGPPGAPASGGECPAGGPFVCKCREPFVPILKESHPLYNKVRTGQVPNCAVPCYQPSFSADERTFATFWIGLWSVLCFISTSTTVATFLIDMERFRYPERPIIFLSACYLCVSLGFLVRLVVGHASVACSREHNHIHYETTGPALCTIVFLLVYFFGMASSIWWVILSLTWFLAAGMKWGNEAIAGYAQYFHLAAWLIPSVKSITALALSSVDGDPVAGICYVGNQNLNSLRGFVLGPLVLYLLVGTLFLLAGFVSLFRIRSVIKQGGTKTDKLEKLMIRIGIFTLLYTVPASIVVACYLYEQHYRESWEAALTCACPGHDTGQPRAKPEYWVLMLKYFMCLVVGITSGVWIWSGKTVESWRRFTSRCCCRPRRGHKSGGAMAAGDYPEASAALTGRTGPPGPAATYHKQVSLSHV

Structure (SMILES): CC(=O)Nc1cccc(C(=O)NC2CCC(N(Cc3cccc(-c4ccncc4)c3)C(=O)c3sc4ccccc4c3Cl)CC2)c1 (stereo not shown) [compound 11, N-((1r,4r)-4-(3-Acetamidobenzamido)cyclohexyl)-3-chloro-N-(3-(pyridin-4-yl)benzyl)benzo[b]thiophene-2-carboxamide]
- IC50 [1]: 851 nM
- Effect on WNT-3A-induced LGR5 mRNA expression [2]: returning mRNA expression almost back to vehicle levels
- Interference with Fluc bioluminescence [3]: interferes with Fluc bioluminescence
- IC50 [4]: 759 nM
